This is an account of results in article PMC7614683, “A small molecule PI3Kα activator for cardioprotection and neuroregeneration” (Nature, 2023).

One test has as its target T1, PI3Kα (Homo sapiens, UniProt P42336).
T1 construct: Full-length human p110α was expressed either in a complex with full-length human p85α (for HTS, biochemistry and HDX-MS); 6xHis tag followed by TEV protease site (N); host or cells: Spodoptera frugiperda Sf9, baculovirus
As to the kind of experiment: FRET membrane binding assay. Conditions: compared with pY. In kind it is biochemical. The method, then:
Membrane binding assays were performed as previously published. Briefly, liposomes were prepared with 5% (w/v) brain PtdIns(4,5)P2, 20% brain phosphatidylserine, 35% brain phosphatidylethanolamine, 15% brain phosphatidylcholine, 10% cholesterol, 5% sphingomyelin, and 10% dansyl-phosphatidylserine (Avanti Polar Lipids). PI3Kα was used at a final concentration of 0.5 μM. Protein solutions were preincubated with 10 μM pY or compounds for 10 min before addition of liposomes. Liposomes were used at a final concentration of 50 μg/ml. The reaction mixture contained 5 μl enzyme, 2 μl compound and 3 μl liposomes, all diluted in 30 mM HEPES, 50 mM NaCl, pH 7.4. The reaction was allowed to proceed for 10 min at room temperature with 384 black-polystyrene plates (Corning #3544) on an orbital shaker at 200 rpm. FRET signals were measured using PHERAStar (BMG) with a 280 nm excitation filter with 350 nm and 520 nm emission filters to measure Dansyl-PS FRET emissions, respectively. FRET signal shown as I-I0, where I is the intensity at 520 nm, and I0 is the intensity at 520 nm for the solution in the absence of protein.

Another test has as its target T2, PI3Kα N345K mutant (Homo sapiens, UniProt P42336, N345K).
T2 construct: Full-length human p110α was expressed either in a complex with full-length human p85α (for HTS, biochemistry and HDX-MS); 6xHis tag followed by TEV protease site (N); host or cells: Sf9, baculovirus
As to the kind of experiment: ADP-Glo catalytic activity, oncogenic mutant N345K. In kind it is biochemical. The method, then:
Expression and purification of wild-type p110α (Cambridge MRC Laboratory for Molecular Biology (LMB-MRC) plasmid number OP831) in a complex with full-length p85α (LMB-MRC plasmid OP809) was performed as described. The oncogenic mutants G106V (LMB-MRC plasmid JB35), N345K (LMB-MRC plasmid OP661) and E545K (LMB-MRC plasmid OP663) were also purified using this protocol. Briefly, 10 litres of Spodoptera frugiperda (Sf9) cell culture at a density of 1.0 x 10^6 cells/ml were co-infected with a p85α-encoding virus [LMB-MRC plasmid OP809]. and a virus encoding p110α with an N-terminal 6xHis tag followed by a tobacco etch virus (TEV) protease site [LMB-MRC plasmid OP831]. After a 48 h infection at 27°C, cells were harvested and washed with PBS. […]
For characterisation of the effects of 1938 on in vitro PI3K enzymology, all reactions were performed at room temperature with 384 white-polystyrene plates (Corning #3574). […] Data was expressed as velocity (nmol of ADP generated/nmol of enzyme/sec). […] Luminescence was read using a PHERAstar® plate reader with software version 5.41, and analyses were performed using GraphPad Prism 8/9.
Background: In ADP-Glo the light output rises with the ADP produced.

In a further test the test system is MEFs. As to the kind of experiment: Phosphoinositide quantification by mass spectrometry, MEFs. In kind it is cell-based, mouse. The protocol: A549 cells (5.10^5) or wild-type MEFs (3.10^5) were plated in complete media onto 3.5 cm dishes or 60 mm dishes respectively for 24 h, prior to FCS-free starvation media for 16 h. MEFs, in addition, were supplemented with arachidonic acid in the FCS-free starvation media as previously described. […] Reactions were terminated in 600 μl ice-cold 1 M HCl and cells scraped and resuspended, then divided into two equal samples in eppendorfs. […] The data are shown as response ratios, calculated by normalizing the multiple reaction monitoring (MRM)-targeted lipid integrated response area to that of a known amount of relevant internal standard. To account for any cell input variability, PIP3 response ratios were normalized to C38:4-PI response ratios; while PI(3,4)P2 response ratios were normalised to PI(4,5)P2 response ratios. Data shown are mean ±SD for n ≥3, except for non-DMSO control in MEF PIP3 measurements where n=1.

Structures are written as SMILES. A value given as a limit tells only on which side of the number the result lay.

T2 sequence (P42336 whole entry N345K): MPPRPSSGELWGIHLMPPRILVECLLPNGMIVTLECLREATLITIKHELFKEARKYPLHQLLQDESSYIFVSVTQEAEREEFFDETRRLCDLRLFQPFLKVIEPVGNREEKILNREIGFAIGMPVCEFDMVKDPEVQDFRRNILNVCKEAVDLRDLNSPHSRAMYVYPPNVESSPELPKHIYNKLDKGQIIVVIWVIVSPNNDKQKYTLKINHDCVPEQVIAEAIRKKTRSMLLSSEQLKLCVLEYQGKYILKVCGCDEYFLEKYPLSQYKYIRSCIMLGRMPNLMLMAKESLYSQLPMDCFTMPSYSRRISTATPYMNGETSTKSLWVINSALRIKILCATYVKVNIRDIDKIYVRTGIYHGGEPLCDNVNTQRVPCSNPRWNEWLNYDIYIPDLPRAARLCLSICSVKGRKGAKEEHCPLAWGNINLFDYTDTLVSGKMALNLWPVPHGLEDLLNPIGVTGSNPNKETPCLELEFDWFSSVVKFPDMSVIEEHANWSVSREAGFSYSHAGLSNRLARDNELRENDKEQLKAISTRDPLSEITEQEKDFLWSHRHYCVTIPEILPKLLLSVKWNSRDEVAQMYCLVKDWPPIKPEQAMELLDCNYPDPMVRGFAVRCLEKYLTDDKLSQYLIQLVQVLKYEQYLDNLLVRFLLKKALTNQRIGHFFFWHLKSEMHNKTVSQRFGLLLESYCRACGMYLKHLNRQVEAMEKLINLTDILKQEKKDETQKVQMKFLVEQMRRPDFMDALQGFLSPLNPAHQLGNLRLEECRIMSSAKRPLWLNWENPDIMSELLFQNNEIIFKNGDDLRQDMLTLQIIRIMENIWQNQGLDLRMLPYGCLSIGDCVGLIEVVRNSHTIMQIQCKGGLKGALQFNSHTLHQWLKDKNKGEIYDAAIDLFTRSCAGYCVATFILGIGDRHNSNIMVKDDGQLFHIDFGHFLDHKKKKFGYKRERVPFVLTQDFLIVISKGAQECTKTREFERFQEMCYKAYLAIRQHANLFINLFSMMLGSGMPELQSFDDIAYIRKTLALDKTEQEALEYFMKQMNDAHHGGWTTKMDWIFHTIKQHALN
T2 sequence (P27986 whole entry partner): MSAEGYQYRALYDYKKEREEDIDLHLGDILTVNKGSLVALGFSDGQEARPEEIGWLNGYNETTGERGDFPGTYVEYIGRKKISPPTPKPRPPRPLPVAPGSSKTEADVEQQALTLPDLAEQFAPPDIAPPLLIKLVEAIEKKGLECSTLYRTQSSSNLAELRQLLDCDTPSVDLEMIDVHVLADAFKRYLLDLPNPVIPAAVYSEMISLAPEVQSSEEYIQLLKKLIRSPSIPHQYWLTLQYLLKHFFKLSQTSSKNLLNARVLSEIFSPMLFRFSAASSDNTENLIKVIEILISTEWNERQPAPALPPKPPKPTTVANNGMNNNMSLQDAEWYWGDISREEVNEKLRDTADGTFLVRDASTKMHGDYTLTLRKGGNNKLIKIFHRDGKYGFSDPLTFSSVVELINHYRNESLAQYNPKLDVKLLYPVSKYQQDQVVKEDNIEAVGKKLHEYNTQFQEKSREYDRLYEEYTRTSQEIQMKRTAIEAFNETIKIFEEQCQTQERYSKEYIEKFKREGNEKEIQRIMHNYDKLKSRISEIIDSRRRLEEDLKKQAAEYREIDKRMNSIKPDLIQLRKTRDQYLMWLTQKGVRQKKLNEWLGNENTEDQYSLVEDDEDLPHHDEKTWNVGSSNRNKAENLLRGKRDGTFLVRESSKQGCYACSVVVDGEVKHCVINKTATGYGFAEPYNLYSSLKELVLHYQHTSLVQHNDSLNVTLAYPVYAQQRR
T1 sequence (P42336 whole entry): as the sequence (P42336 whole entry N345K) above, with K345N counted along it
T1 sequence (P27986 whole entry partner): as the sequence (P27986 whole entry partner) above

Usually EC50 stands for the concentration that produces a half-maximal response. Turning to `CCN1CCN(c2ccc(Nc3cc(Nc4cccc5c4N(C(C)=O)CC5)ccn3)cc2)CC1` [Compound 1938], the “PI3Kα binding to lipid membranes (FRET signal), maximum level” value on PI3Kα is on record as “about half of that induced by pY”. Further, at PI3Kα N345K mutant, the “activation of N345K mutant” value is “levels comparable with stimulation with pY”. Moreover, in the test on MEFs, the “time for which maximal PIP3 level is maintained” value is “up to 40 min”, the “time of maximal PIP3 level” value is 5 min and the “time to increased PIP3 levels” value is ≤ 30 s. For the same compound, the “concentration at which PIP3 induction plateaus” value with MEFs (2 min) is “around 10 μM”. Also, the “PIP3 levels compared with insulin and PDGF” value with MEFs (2 min time point) is on record as “comparable to those induced by insulin”. The EC50 in the test with MEFs (Mus musculus, 2 min, read-out: EC50 of PIP3 induction) was ~5 µM.
